The target of experiment [1] is RXFP4 (h) (agonist radioligand) (Homo sapiens, UniProt Q8TDU9). The experiment can be described thus: GPCR Biosensor cAMP Hunter assay, RXFP4. The class given is cell-based. How it is done: Benedin is found to weakly bind with RXFP4 and RXFP3 receptors (Study FR095-0024749-Q Eurofins/leadHunter Jun. 25, 2021; unpublished data) (Table 2).
In these assays' compounds were tested in agonist and antagonist mode with the GPCR Biosensor Assays and match to this design:
1. cAMP Hunter cell lines were expanded from freezer stocks according to standard procedures.
2. Cells were seeded in a total volume of 20 μL into white walled, 384-well microplates and incubated at 37° C. for the appropriate time prior to testing.
3. cAMP modulation was determined using the DiscoverX HitHunter CAMP XS+assay.
1. For agonist determination, cells were incubated with sample in the presence of EC80 forskolin to induce response.
2. Media was aspirated from cells and replaced with 15 μL 2:1 HBSS/10 mM Hepes: CAMP XS+Ab reagent. […]
2. Microplates were read following signal generation with a PerkinElmer Envision™ instrument for chemiluminescent signal detection.
5. For Gi agonist mode assays, percentage activity is calculated using the following formula: % Activity=100%×(1−(mean RLU of test sample-mean RLU of MAX control)/(mean RLU of vehicle control−mean RLU of MAX control)).
8. For Gi antagonist or negative allosteric mode assays, percentage inhibition is calculated using the following formula: % Inhibition=100%×(mean RLU of test sample−mean RLU of EC80 control)/(mean RLU of forskolin positive control−mean RLU of […]

In experiment [2] the target is T1, M2 (h) (antagonist radioligand) (Homo sapiens, UniProt P08172).
T1 construct: CEREP (Eurofins, France), contract panel
T1 sequence (P08172 1-466): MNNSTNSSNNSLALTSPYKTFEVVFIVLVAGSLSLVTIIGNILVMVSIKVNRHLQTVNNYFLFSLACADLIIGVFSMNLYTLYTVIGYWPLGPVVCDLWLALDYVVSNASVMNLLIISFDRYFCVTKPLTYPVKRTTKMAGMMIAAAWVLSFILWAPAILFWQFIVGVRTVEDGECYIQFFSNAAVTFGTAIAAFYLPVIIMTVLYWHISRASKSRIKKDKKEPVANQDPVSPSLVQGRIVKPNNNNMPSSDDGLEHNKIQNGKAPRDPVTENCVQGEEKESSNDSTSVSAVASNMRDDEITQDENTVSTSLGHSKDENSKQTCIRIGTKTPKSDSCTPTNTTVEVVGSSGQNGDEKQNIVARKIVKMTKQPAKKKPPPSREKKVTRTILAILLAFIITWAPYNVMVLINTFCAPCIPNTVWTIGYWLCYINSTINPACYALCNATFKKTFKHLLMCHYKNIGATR
Kind of experiment: Radioligand binding panel (Eurofins/CEREP), M2. Particulars: 10^−5 M; % inhibition of control specific binding; read-out: % Inhibition at 10^−5M Benedin. As for the experimental part:
(§1) Benedin was tested at 10^−5 M, calculated as a % inhibition of control specific binding of a radioactively labeled ligand specific for each target.
(§2) This binding profile panel was broadly defined with roughly an equal number of selective, central and peripheral therapeutically relevant targets, including native animal tissues, radioligands and specific enzymes involved in cell cycle regulation in accordance with Eurofins Standard Operating Procedure.
(§3) For radioligand binding experiments, the half maximal inhibitory concentration (IC50) and the half maximal effective concentration (EC50) values were determined (via computer software) by nonlinear regression analysis of the competition curves using Hill equation curve fitting. The inhibition constants (Ki) were calculated using the Cheng-Prusoff equation (Ki=IC50/(1+(L/KD)), where L is the concentration of radioligand in the assay, and KD is the affinity of the radioligand for the receptor.^60
(§4) The results are expressed as a % control specific binding ([measured specific binding/control specific binding]×100) and as a % inhibition of control specific binding (100−[(measured specific binding/control specific binding)×100] obtained in the presence of the test compounds. […]

Experiment [3] deals with T2, Kappa (h) (KOP) (agonist radioligand) (Homo sapiens, UniProt P41145).
T2 construct: CEREP (Eurofins, France), contract panel
The experiment can be described thus: Radioligand binding panel (Eurofins/CEREP), kappa opioid. The conditions noted are these: 10^−5 M; % inhibition of control specific binding; read-out: % Inhibition at 10^−5M Benedin. As for the experimental part: as §1, §2, §3, §4

In experiment [4] the target is T3, M3 (h) (antagonist radioligand) (Homo sapiens, UniProt P20309).
T3 construct: CEREP (Eurofins, France), contract panel
Kind of experiment: Radioligand binding panel (Eurofins/CEREP), M3. The conditions noted are these: 10^−5 M; % inhibition of control specific binding; read-out: % Inhibition at 10^−5M Benedin. How it is done:
as §1, §2, §3, §4

The structures appear in SMILES notation.

Broadly, the inhibition is the change of the read-out against control, counted positive when it falls.

RXFP4 (h) (agonist radioligand), sequence (Q8TDU9 whole entry): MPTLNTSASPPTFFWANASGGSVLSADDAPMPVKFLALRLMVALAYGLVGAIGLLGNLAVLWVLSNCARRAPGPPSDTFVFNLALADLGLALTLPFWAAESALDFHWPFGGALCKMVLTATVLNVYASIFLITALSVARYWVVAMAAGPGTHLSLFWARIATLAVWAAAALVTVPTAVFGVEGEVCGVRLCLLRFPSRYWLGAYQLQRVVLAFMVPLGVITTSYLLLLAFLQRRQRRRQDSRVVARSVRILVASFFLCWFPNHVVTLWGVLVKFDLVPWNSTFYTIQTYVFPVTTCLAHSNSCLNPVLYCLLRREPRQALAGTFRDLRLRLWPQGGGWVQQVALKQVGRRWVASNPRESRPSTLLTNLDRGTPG
T3 sequence (P20309 whole entry): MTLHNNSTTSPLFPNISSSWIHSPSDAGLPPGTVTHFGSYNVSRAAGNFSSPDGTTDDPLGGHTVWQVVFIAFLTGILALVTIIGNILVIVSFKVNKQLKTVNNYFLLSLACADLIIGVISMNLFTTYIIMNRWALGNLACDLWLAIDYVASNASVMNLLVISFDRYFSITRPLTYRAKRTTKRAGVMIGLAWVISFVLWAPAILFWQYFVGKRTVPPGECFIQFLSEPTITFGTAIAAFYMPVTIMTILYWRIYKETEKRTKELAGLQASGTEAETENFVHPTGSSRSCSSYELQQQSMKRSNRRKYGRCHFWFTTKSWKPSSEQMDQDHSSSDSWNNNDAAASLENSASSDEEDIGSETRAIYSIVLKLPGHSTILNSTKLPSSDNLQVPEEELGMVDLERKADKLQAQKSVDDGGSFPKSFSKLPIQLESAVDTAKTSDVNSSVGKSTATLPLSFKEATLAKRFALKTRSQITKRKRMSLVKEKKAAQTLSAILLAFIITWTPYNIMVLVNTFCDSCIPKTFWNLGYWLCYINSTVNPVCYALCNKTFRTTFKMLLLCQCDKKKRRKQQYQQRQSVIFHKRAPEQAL
T2 sequence (P41145 whole entry): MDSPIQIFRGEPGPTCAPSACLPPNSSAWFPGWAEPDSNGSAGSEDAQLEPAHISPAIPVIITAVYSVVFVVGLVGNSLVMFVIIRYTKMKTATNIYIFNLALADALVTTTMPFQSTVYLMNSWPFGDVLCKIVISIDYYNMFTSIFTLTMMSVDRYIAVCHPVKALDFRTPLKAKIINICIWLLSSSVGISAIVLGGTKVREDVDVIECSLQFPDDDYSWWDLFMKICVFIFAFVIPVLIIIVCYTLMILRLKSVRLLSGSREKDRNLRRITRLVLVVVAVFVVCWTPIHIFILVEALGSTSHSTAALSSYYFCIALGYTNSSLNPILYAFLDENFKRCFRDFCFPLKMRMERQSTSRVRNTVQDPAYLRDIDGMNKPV

On to `CN1CCCC(O)C1C(c1ccccc1)c1ccccc1` (centres unmarked) [Benedin, 2-benzhydryl-3-hydroxy-N-methyl-piperidine], for which the “% Inhibition at 10^−5M Benedin” value in experiment [1] was “weakly bind”. In addition, the inhibition at 10 µM in experiment [1] (10^−5 M, read-out: % Inhibition at 10^−5M Benedin) came to 26.3%; in experiment [2], 65%; in experiment [3], 39.2%; in experiment [4], 44.6%.

Source of the values: patent US20240316023A1, “BENEDIN, PIPERIDINE, 2-BENZHYDRYL-3-HYDROXY-N-METHYL-, HYDROCHLORIDE AND DERIVATIVES THEREOF FOR USE IN TREATING KLEINE-LEVIN SYNDROME” (priority 2021, published 2024).
